This passage reports Ki results from patent publication US8343959B2, “N-phenyl-(piperazinyl or homopiperazinyl)-benzenesulfonamide or benzenesulfonyl-phenyl-(piperazine or homopiperazine) compounds suitable for treating disorders that respond to modulation of the serotonin 5-HT6 receptor” (Abbott GmbH & Co. KG, priority 2009, dated 2013).

Where a name gives a salt, the structure may show the parent alone.

In the experiment the target is T1, h-5-HT6 receptor (Homo sapiens, UniProt P50406).
T1 construct: expressed in transfected cells
T1 sequence (P50406 whole entry): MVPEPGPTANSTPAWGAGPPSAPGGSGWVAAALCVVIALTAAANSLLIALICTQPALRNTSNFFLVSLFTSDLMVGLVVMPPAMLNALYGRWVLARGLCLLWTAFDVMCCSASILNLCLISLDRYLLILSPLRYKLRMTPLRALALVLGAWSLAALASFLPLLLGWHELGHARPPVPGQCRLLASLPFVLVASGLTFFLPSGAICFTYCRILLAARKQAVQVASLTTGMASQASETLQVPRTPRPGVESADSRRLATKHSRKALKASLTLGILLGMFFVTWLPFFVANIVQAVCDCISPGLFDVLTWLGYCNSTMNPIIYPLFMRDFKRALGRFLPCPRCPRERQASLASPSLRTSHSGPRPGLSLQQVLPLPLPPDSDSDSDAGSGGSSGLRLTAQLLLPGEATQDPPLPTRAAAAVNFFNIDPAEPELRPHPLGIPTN
Nature of the experiment: 5-HT6 receptor binding assay (displacement of [3H]-LSD). Conditions: membranes of HEK293 cells expressing h-5-HT6 receptor, 1 nM [3H]-LSD; read-out: Ki (5HT6). How it is done:
Displacement of Radioligands Binding to The Following Cloned Human Receptors
Cells from stable clonal cell lines expressing the corresponding receptor (5-HT6, α1-adrenergic, dopamine D2 or histamine H1 receptors) were washed with PBS (w/o Ca^++, Mg^++) and harvested in PBS with 0.02% EDTA. The cells were collected by centrifugation at 500 g for 10 min. at 4° C., washed with PBS and centrifuged (500 g, 10 min. 4° C.). The pellets were stored at −80° C. until use. For membrane preparation, the thawed cell pellet was resuspended in ice-cold sucrose buffer (0.25 M sucrose, 10 mM Hepes (pH 7.4), 1 mM Phenylmethylsulfonyl fluoride (PMSF) in DMSO, 5 μg/ml Pepstatin-A, 3 mM EDTA, 0.025% Bacitracin) and homogenized with a Branson Sonifier W-250 (Settings: Timer 4; Output Control 3; Duty Cycle constant; 2 to 3 cycles). Cell disruption was checked with the aid of a microscope. Remaining unbroken cells were pelleted at 1.000 g for 10 min. at 4° C. The sucrose buffer supernatant was then centrifuged at 60.000 g for 1 h at 4° C. (Beckman Ultrazentrifuge XL 80). The pellet was resuspended in 30 ml ice-cold Tris buffer (20 mM TRIS (pH 7.4), 5 μg/ml Pepstatin A, 0.1 mM PMSF, 3 mM EDTA) by pipetting through a 10 ml serological pipet and centrifuged for 1 h at 4° C. at 60.000 g. A final resuspension was performed in a small volume of ice-cold Tris buffer (see above) by pressing through a serological pipet followed by ultrasonic treatment with a Branson Sonifier W-250 (Settings: Timer 1; Output Control 3; Duty Cycle constant; 1 cycle). Protein concentration was determined (BCA-Kit; Pierce) and aliquots stored at −80° C. or in liquid nitrogen for long-term storage.
All receptor binding experiments were carried out in the corresponding assay buffer in a total volume of 200 μl in the presence of various concentrations of test compound (10^−5 M to 10^−9 M, tenfold serial dilution, duplicate determinations). The assays were terminated by filtration on polyethylenimine (PEI 0.1% or 0.3%) presoaked Packard Unifilter Plates (GF/C or GF/B) with a Tomtec Machin U 96 well-plate harvester. After the plates had been dried for 2 h at 55° C. in a drying chamber scintillation cocktail (BetaPlate Scint; PerkinElmer) was added. Radioactivity was measured in a Microbeta Trilux two hours after the addition of the scintillation mixture. Data derived from liquid scintillation counting were analysed by iterative non-linear regression analysis with the use of the Statistical Analysis System (SAS): a program similar to “LIGAND” as described by Munson and Rodbard (Analytical Biochemistry 107, 220-239 (1980).
HEK293 cells stably expressing the h-5-HT6 receptor (NCBI Reference Sequence XM 001435) were cultured in RPMI1640 medium supplemented with 25 mM HEPES, 10% fetal calf serum and 1-2 mM glutamine. The membrane preparation was performed as described in section 1. […] Non-specific binding was defined with 1 μM methiothepin. The binding reaction was carried out for 3.5 h at room temperature. During the incubation, the plates were shaken on a plate shaker at 100 rpm and terminated by filtration on Packard Unifilter GF/C (0.1% PEI) plates, followed by 2 wash cycles with ice-cold 50 mM Tris-HCl, 5 mM CaCl2.
Data derived from liquid scintillation counting were analyzed by iterative non-linear regression analysis with the use of the Statistical Analysis System (SAS): a program similar to “LIGAND” as described by Munson and Rodbard (Anal. Biochem. 1980, 107, 220-239). Fitting was performed according to formulae described by Feldman (Anal. Biochem. 1972, 48, 317-338). IC50, nH and Ki values were expressed as geometrical mean.
In general terms: In a radioligand displacement assay an active substance lowers the binding of a labelled ligand.
For the compound `COc1ccc(S(=O)(=O)Nc2cc(Cl)ccc2OC(F)F)cc1N1CCN(C)CC1` [Example 53, N-(5-Chloro-2-difluoromethoxy-phenyl)-4-methoxy-3-(4-methyl-piperazin-1-yl)-benzenesulfonamide hydrochloride], the Ki – broadly, a dissociation constant, usually derived from enzyme kinetics or from competition with a known ligand – is under 10 nM.

As to `CCc1ccc(S(=O)(=O)Nc2cc(C)ccc2OC(F)F)cc1N1CCN(C)CC1` [Example 54, N-(2-Difluoromethoxy-5-methyl-phenyl)-4-ethyl-3-(4-methyl-piperazin-1-yl)-benzenesulfonamide], the Ki was under 10 nM. For `COc1ccc(S(=O)(=O)Nc2cc(OC(F)F)ccc2C)cc1N1CCN(C)CC1` [Example 55, N-(5-Difluoromethoxy-2-methyl-phenyl)-4-methoxy-3-(4-methyl-piperazin-1-yl)-benzenesulfonamide hydrochloride] the value was under 10 nM; for `Cc1ccc(S(=O)(=O)Nc2cc(Cl)ccc2OC(F)F)cc1N1CCN(C)CC1` [Example 56, N-(5-Chloro-2-difluoromethoxy-phenyl)-4-methyl-3-(4-methyl-piperazin-1-yl)-benzenesulfonamide hydrochloride], under 50 nM. Next, `COc1ccc(S(=O)(=O)Nc2cc(Cl)ccc2OC(F)F)cc1N1CCNCC1` [Example 57, N-(5-Chloro-2-difluoromethoxy-phenyl)-4-methoxy-3-piperazin-1-yl-benzenesulfonamide hydrochloride]: under 10 nM; `Cc1ccc(OC(F)F)cc1NS(=O)(=O)c1ccc(C)c(N2CCNCC2)c1` [Example 58, N-(5-Difluoromethoxy-2-methyl-phenyl)-4-methyl-3-piperazin-1-yl-benzenesulfonamide hydrochloride]: under 10 nM; `COc1ccc(S(=O)(=O)Nc2cc(OC(F)F)ccc2C)cc1N1CCNCC1` [Example 59, N-(5-Difluoromethoxy-2-methyl-phenyl)-4-methoxy-3-piperazin-1-yl-benzenesulfonamide hydrochloride]: under 10 nM. For `COc1ccc(S(=O)(=O)Nc2ccc(OC(F)F)c(OC(F)F)c2)cc1N1CCNCC1` [Example 60, N-(3,4-Bis-difluoromethoxy-phenyl)-4-methoxy-3-piperazin-1-yl-benzenesulfonamide hydrochloride] the value was under 10 nM; for `CCc1ccc(S(=O)(=O)Nc2cc(Cl)ccc2OC(F)F)cc1N1CCNCC1` [Example 61, N-(5-Chloro-2-difluoromethoxy-phenyl)-4-ethyl-3-piperazin-1-yl-benzenesulfonamide hydrochloride], under 10 nM; for `CCc1ccc(S(=O)(=O)Nc2ccc(C)cc2OC(F)F)cc1N1CCNCC1` [Example 62, N-(2-Difluoromethoxy-4-methyl-phenyl)-4-ethyl-3-piperazin-1-yl-benzenesulfonamide hydrochloride], under 10 nM. Turning to `Cc1ccc(OC(F)F)c(NS(=O)(=O)c2ccc(C)c(N3CCN[C@H](C)C3)c2)c1` [Example 63, N-(2-Difluoromethoxy-5-methyl-phenyl)-4-methyl-3-((R)-3-methyl-piperazin-1-yl)-benzenesulfonamide hydrochloride], the inhibition constant (Ki) was under 10 nM.

For `Cc1ccc(OC(F)F)c(NS(=O)(=O)c2ccc(C)c(N3CCN[C@@H](C)C3)c2)c1` [Example 64, N-(2-Difluoromethoxy-5-methyl-phenyl)-4-methyl-3-((S)-3-methyl-piperazin-1-yl)-benzenesulfonamide hydrochloride], the Ki was under 10 nM. As for `CCc1ccc(S(=O)(=O)Nc2cc(C)ccc2OC(F)F)cc1N1CCNCC1` [Example 65, N-(2-Difluoromethoxy-5-methyl-phenyl)-4-ethyl-3-piperazin-1-yl-benzenesulfonamide hydrochloride], the Ki was under 10 nM. Next, `COc1ccc(S(=O)(=O)Nc2ccc3c(c2)OC(F)(F)O3)cc1N1CCN(C)CC1` [Example 66, N-(2,2-Difluoro-benzo[1,3]dioxol-5-yl)-4-methoxy-3-(4-methyl-piperazin-1-yl)-benzenesulfonamide hydrochloride]: under 10 nM; `COc1ccc(S(=O)(=O)Nc2cc(C)ccc2OC(F)F)cc1N1CCN(C)CC1` [Example 67, N-(2-Difluoromethoxy-5-methyl-phenyl)-4-methoxy-3-(4-methyl-piperazin-1-yl)-benzenesulfonamide hydrochloride]: under 10 nM; `O=S(=O)(Nc1cccc(OC(F)F)c1)c1cccc(N2CCNCC2)c1` [Example 68, N-(3-Difluoromethoxy-phenyl)-3-piperazin-1-yl-benzenesulfonamide hydrochloride]: under 10 nM. For `COc1ccc(S(=O)(=O)Nc2ccc(F)cc2OC(F)F)cc1N1CCN(C)CC1` [Example 69, N-(2-Difluoromethoxy-4-fluoro-phenyl)-4-methoxy-3-(4-methyl-piperazin-1-yl)-benzenesulfonamide hydrochloride] the value was under 10 nM; for `COc1ccc(S(=O)(=O)Nc2ccc(C)cc2OC(F)F)cc1N1CCN(C)CC1` [Example 70, N-(2-Difluoromethoxy-4-methyl-phenyl)-4-methoxy-3-(4-methyl-piperazin-1-yl)-benzenesulfonamide hydrochloride], under 10 nM. For the compound `Cc1ccc(S(=O)(=O)Nc2cc(Cl)ccc2OC(F)F)cc1N1CCNCC1` [Example 71, N-(5-Chloro-2-difluoromethoxy-phenyl)-4-methyl-3-piperazin-1-yl-benzenesulfonamide hydrochloride], the Ki was under 10 nM. For `COc1ccc(S(=O)(=O)Nc2cc(C)ccc2OC(F)F)cc1N1CCNCC1` [Example 72, N-(2-Difluoromethoxy-5-methyl-phenyl)-4-methoxy-3-piperazin-1-yl-benzenesulfonamide hydrochloride] the value was under 10 nM; for `COc1ccc(S(=O)(=O)Nc2ccc(C)cc2OC(F)F)cc1N1CCNCC1` [Example 73, N-(2-Difluoromethoxy-4-methyl-phenyl)-4-methoxy-3-piperazin-1-yl-benzenesulfonamide hydrochloride], under 10 nM.

With `Cc1ccc(S(=O)(=O)Nc2ccc(F)cc2OC(F)F)cc1N1CCNCC1` [Example 74, N-(2-Difluoromethoxy-4-fluoro-phenyl)-4-methyl-3-piperazin-1-yl-benzenesulfonamide hydrochloride], the Ki is under 50 nM. For `Cc1ccc(NS(=O)(=O)c2ccc(C)c(N3CCN(C)CC3)c2)cc1OC(F)F` [Example 75, N-(3-Difluoromethoxy-4-methyl-phenyl)-4-methyl-3-(4-methyl-piperazin-1-yl)-benzenesulfonamide hydrochloride], the Ki is under 50 nM. Next, `COc1cc(NS(=O)(=O)c2ccc(C)c(N3CCNCC3)c2)ccc1OC(F)F` [Example 76, N-(4-Difluoromethoxy-3-methoxy-phenyl)-4-methyl-3-piperazin-1-yl-benzenesulfonamide]: under 50 nM. Next, `COc1ccc(OC(F)F)cc1NS(=O)(=O)c1ccc(C)c(N2CCN(C)CC2)c1` [Example 77, N-(5-Difluoromethoxy-2-methoxy-phenyl)-4-methyl-3-(4-methyl-piperazin-1-yl)-benzenesulfonamide trifluoroacetate]: under 50 nM. Next, `COc1ccc(OC(F)F)c(NS(=O)(=O)c2ccc(C)c(N3CCN(C)CC3)c2)c1` [Example 78, N-(2-Difluoromethoxy-5-methoxy-phenyl)-4-methyl-3-(4-methyl-piperazin-1-yl)-benzenesulfonamide trifluoroacetate]: under 50 nM.
